Measured values: patent US20100137275A1 (IPSEN PHARMA S.A.S., priority 2007, published 2010)

How the values were obtained:
[1] = target: T1, purified recombinant Cdc25-C enzyme (MBP-Cdc25C protein) (Homo sapiens, UniProt P30307); test: Phosphatase activity of the purified recombinant Cdc25C enzyme (OMFP dephosphorylation, fluorescence); type: biochemical; settings: OMFP 500 μM, 4 hours at 30° C.
T1 construct: made in house
T1 sequence (P30307 1-473): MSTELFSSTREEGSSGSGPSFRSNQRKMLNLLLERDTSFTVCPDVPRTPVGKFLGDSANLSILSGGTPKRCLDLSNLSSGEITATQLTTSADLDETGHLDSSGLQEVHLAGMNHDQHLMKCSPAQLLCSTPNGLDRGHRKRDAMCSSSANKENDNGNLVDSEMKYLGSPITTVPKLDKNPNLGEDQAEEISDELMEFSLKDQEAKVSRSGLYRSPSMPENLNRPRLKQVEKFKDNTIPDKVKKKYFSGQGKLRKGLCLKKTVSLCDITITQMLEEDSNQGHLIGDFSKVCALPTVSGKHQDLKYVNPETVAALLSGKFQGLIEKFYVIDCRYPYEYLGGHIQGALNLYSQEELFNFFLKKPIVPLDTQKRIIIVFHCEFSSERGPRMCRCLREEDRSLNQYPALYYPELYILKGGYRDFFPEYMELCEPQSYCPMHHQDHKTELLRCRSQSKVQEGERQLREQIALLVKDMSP
Experimental: The phosphatase activity of the MBP-Cdc25C protein is evaluated through its dephosphorylation of 3-O-methylfluorescein-phosphate (OMFP) to form 3-O-methylfluorescein (OMF), determining the fluorescence of the reaction product at 475 nm. This assay can be used to identify inhibitors of the recombinant Cdc25 enzyme. The preparation of the MBP-Cdc25C fusion protein is described in patent application PCT WO 01/44467.
The reaction is performed in 384-well plates in a final volume of 50 μl. The MBP-Cdc25C protein (prepared as described hereinabove) is stored in the following elution buffer: 20 mM Tris-HCl pH 7.4; 250 mM NaCl; 1 mM EDTA; 1 mM dithiothreitol (DTT); 10 mM maltose. It is diluted to a concentration of 60 μM in the following reaction buffer: 50 mM Tris-HCl pH 8.2; 50 mM NaCl; 1 mM DTT; 20% glycerol. The background noise is determined using with the buffer without addition of the enzyme. The products are tested at decreasing concentrations from 40 μM. The reaction is initiated by the addition of a solution OMFP to a final concentration of 500 μM (prepared immediately before use from a 12.5 mM stock solution in 100% DMSO (Sigma #M2629)). After 4 hours at 30° C. in a disposable 384-well plate, the fluorescence measured at OD 475 nm is read on a Victor^2 plate reader (EGG-Wallac). The concentration that produces 50% inhibition of the enzyme reaction is calculated from three independent experiments. Only the values that fall within the linear part of the sigmoid curve are used for the linear regression analysis.

IC50 [1] [µM] | melting point [°C] | SMILES
≤ 5 |  | CCN(CC)CCCCCNc1cc(N2CCCC2)nc(N2CCCC2)n1 [Example 6, N′-(2,6-dipyrrolidin-1-ylpyrimidin-4-yl)-N,N-diethylpentane-1,5-diamine]
≤ 1 | 102 to 104 | CNS(=O)(=O)c1ccc(NC(=S)NCCN(C)CCNc2cc(N3CCCC3)nc(N3CCCC3)n2)cc1 [Example 59, 4-{[({2-[{2-[(2,6-dipyrrolidin-1-ylpyrimidin-4-yl)amino]ethyl}(methyl)amino]ethyl}amino)carbonothioyl]amino}-N-methylbenzenesulfonamide]
≤ 1 | 124 to 126 | CN(CCNC(=S)Nc1ccc(F)cc1F)CCNc1cc(N2CCCC2)nc(N2CCCC2)n1 [Example 40, N-(2,4-difluorophenyl)-N′-{2-[{2-[(2,6-dipyrrolidin-1-ylpyrimidin-4-yl)amino]ethyl}(methyl)amino]ethyl}thiourea]
≤ 5 | 146 to 148 | CN(CCNC(=S)Nc1ccc(Cl)c(F)c1)CCNc1cc(N2CCCC2)nc(N2CCCC2)n1 [Example 56, N-(4-chloro-3-fluorophenyl)-N′-{2-[{2-[(2,6-dipyrrolidin-1-ylpyrimidin-4-yl)amino]ethyl}(methyl)amino]ethyl}thiourea]
≤ 5 | 171 to 173 | COc1ccc(C(=O)NC(=S)NCCN(C)CCNc2cc(N3CCCC3)nc(N3CCCC3)n2)cc1 [Example 80, N-[({2-[{2-[(2,6-dipyrrolidin-1-ylpyrimidin-4-yl)amino]ethyl}(methyl)amino]ethyl}amino)carbonothioyl]-4-methoxybenzamide]
≤ 5 | 119 to 121 | CN(CCNC(=O)c1ccc(C(=O)c2ccccc2)cc1)CCNc1cc(N2CCCC2)nc(N2CCCC2)n1 [Example 83, 4-benzoyl-N-{2-[{2-[(2,6-dipyrrolidin-1-ylpyrimidin-4-yl)amino]ethyl}(methyl)amino]ethyl}benzamide]
≤ 5 |  | CN(CCCN)CCCNc1cc(N2CCCC2)nc(N2CCCC2)n1 [Example 2, N-(3-aminopropyl)-N′-(2,6-dipyrrolidin-1-ylpyrimidin-4-yl)-N-methylpropane-1,3-diamine]
≤ 5 | 116 to 118 | CN(CCNC(=S)Nc1ccc(N2CCOCC2)nc1)CCNc1cc(N2CCCC2)nc(N2CCCC2)n1 [Example 32, N-{2-[{2-[(2,6-dipyrrolidin-1-ylpyrimidin-4-yl)amino]ethyl}(methyl)amino]ethyl}-N′-(6-morpholin-4-ylpyridin-3-yl)thiourea]
 | 81 to 83 | CN(CCNC(=S)Nc1ccc(Cl)cc1)CCNc1cc(N2CCOCC2)nc(N2CCOCC2)n1 [Example 66, N-(4-chlorophenyl)-N′-{2-[{2-[(2,6-dimorpholin-4-ylpyrimidin-4-yl)amino]ethyl}(methyl)amino]ethyl}thiourea]
≤ 5 |  | NCCCCCNc1cc(N2CCCC2)nc(N2CCCC2)n1 [Example 4, N-(2,6-dipyrrolidin-1-ylpyrimidin-4-yl)pentane-1,5-diamine]
≤ 5 | 107 to 109 | CN(CCNC(=O)NC(C)(C)C)CCNc1cc(N2CCCC2)nc(N2CCCC2)n1 [Example 9, N-(tert-butyl)-N′-{2-[{2-[(2,6-dipyrrolidin-1-ylpyrimidin-4-yl)amino]ethyl}(methyl)amino]ethyl}urea]
≤ 5 | 117 to 119 | CN(CCNC(=S)Nc1ccc(Cl)c(C(F)(F)F)c1)CCNc1cc(N2CCCC2)nc(N2CCCC2)n1 [Example 54, N-[4-chloro-3-(trifluoromethyl)phenyl]-N′-{2-[{2-[(2,6-dipyrrolidin-1-ylpyrimidin-4-yl)amino]ethyl}(methyl)amino]ethyl}thiourea]
≤ 1 | 129 | Cc1cc(C)nc(NS(=O)(=O)c2ccc(NC(=S)NCCN(C)CCNc3cc(N4CCCC4)nc(N4CCCC4)n3)cc2)n1 [Example 50, N-(4,6-dimethylpyrimidin-2-yl)-4-{[({2-[{2-[(2,6-dipyrrolidin-1-ylpyrimidin-4-yl)amino]ethyl}(methyl)amino]ethyl}amino)carbonothioyl]amino}benzenesulfonamide]
≤ 5 |  | CNCCCN(C)CCCN(C)c1cc(N2CCCC2)nc(N2CCCC2)n1 [Example 3, N-(2,6-dipyrrolidin-1-ylpyrimidin-4-yl)-N,N′-dimethyl-N′-[3-(methylamino)propyl]propane-1,3-diamine]
≤ 1 |  | CN(CCNC(=O)Nc1ccc(Cl)c(C(F)(F)F)c1)CCNc1cc(N2CCCC2)nc(N2CCCC2)n1 [Example 7, N-[4-chloro-3-(trifluoromethyl)phenyl]-N′-{2-[{2-[(2,6-dipyrrolidin-1-ylpyrimidin-4-yl)amino]ethyl}(methyl)amino]ethyl}urea]
≤ 1 | 95 to 97 | Cc1noc(C)c1NC(=O)NCCN(C)CCNc1cc(N2CCCC2)nc(N2CCCC2)n1 [Example 13, N-(3,5-dimethylisoxazol-4-yl)-N′-{2-[{2-[(2,6-dipyrrolidin-1-ylpyrimidin-4-yl)amino]ethyl}(methyl)amino]ethyl}urea]
 | 127 to 129 | CCN(CCN(C)CCNc1cc(N2CCCC2)nc(N2CCCC2)n1)C(N)=O [Example 18, N-{2-[{2-[(2,6-dipyrrolidin-1-ylpyrimidin-4-yl)amino]ethyl}(methyl)amino]ethyl}-N-ethylurea]
 | 211 to 213 | CN(CCNC(=S)Nc1ccc(Cl)cc1)CCNc1cc(N2CCCC2)nc(N2CCCC2)n1.Cl
 | 115 to 117 | CN(CCCNC(=O)Nc1ccc(Cl)c(C(F)(F)F)c1)CCCNc1cc(N2CCCC2)nc(N2CCCC2)n1.Cl
 | 85 to 87 | FC(F)(F)c1cc(NC(=S)NCCCCCNc2cc(N3CCCC3)nc(N3CCCC3)n2)ccc1Cl [Example 57, N-[4-chloro-3-(trifluoromethyl)phenyl]-N′-{5-[(2,6-dipyrrolidin-1-ylpyrimidin-4-yl)amino]pentyl}thiourea]
 | 146 to 148 | CN(CCNC(=O)c1cnc2ccccc2n1)CCNc1cc(N2CCCC2)nc(N2CCCC2)n1 [Example 82, N-{2-[{2-[(2,6-dipyrrolidin-1-ylpyrimidin-4-yl)amino]ethyl}(methyl)amino]ethyl}quinoxaline-2-carboxamide]
≤ 5 |  | CN(C)CCCCCNc1cc(N2CCCC2)nc(N2CCCC2)n1 [Example 5, N′-(2,6-dipyrrolidin-1-ylpyrimidin-4-yl)-N,N-dimethylpentane-1,5-diamine]
≤ 1 |  | CCN(CC)c1cc(NCCN(C)CCNC(=S)Nc2ccc(Cl)cc2)nc(N(CC)CC)n1 [Example 71, N-{2-[(2-{[2,6-bis(diethylamino)pyrimidin-4-yl]amino}ethyl)(methyl)amino]ethyl}-N′-(4-chlorophenyl)thiourea]
 | 93 to 95 | CN(CCNc1cc(N2CCCC2)nc(N2CCCC2)n1)CCN(C(N)=O)[C@@H]1CCc2ccccc2C1 [Example 11, N-{2-[{2-[(2,6-dipyrrolidin-1-ylpyrimidin-4-yl)amino]ethyl}(methyl)amino]ethyl}-N-[(2R)-1,2,3,4-tetrahydronaphthalen-2-yl]urea]

SMILES | IC50 [1] [µM] | melting point [°C]
CCNC(=O)NCCN(C)CCNc1cc(N2CCCC2)nc(N2CCCC2)n1 [Example 18] | ≤ 5 | 
